Data published in US6111069A, “Polypeptides that include conformation-constraining groups which flank a protein-protein interaction site” (Virginia Commonwealth University, priority 1997, dated 2000).
Where a SMILES comes first, the peptide text is derived from it.

Key:
[1] = Preliminary studies of hypotensive peptide versus diltiazem (diastolic pressure, arrhythmia); format: in vivo, rat
Description: 60 to 120 μg per rat (5 to 10 μM).

[2] = tested on: receptors of sweet tasting papillae; settings: comparison value; cited from earlier work

SMILES | Effect on diastolic pressure [1] | Sweetness relative to sugar [2] [times sweeter than sugar]
CSCC[C@H](NC(=O)[C@H](C)NC(=O)[C@@H](NC(=O)[C@@H]1CCCN1C(=O)[C@H](C)N)[C@@H](C)O)C(=O)N[C@@H](Cc1c[nH]c2ccccc12)C(=O)N1CCC[C@H]1C(=O)N[C@@H](C)C(=O)O [HP-1, Ala-Pro-Thr-Ala-Met-Trp-Pro-Ala] (H-APTAMWPA-OH) | does not increase diastolic pressure | 
COC(=O)[C@H](Cc1ccccc1)NC(=O)[C@@H](N)CC(=O)O [aspartame] (H-Asp-Phe-OMe) |  | 160
